Where “and” joins values, the source holds several entries; their conditions need not be identical. Identical values can stand only once. Inconclusive results and toxic doses are left out. Rule for the calls: active = survival T/C of 150% or more; inactive = T/C below 125% in these data.
Test system: CD2F1 mice, L1210 leukemia ip, survival T/C
Assay: NCI In Vivo Anticancer Drug Screen. Data for tumor model L1210 Leukemia (intraperitoneal) in CD2F1 (CDF1) mice
Conditions: endpoint: mean survival time, higher = longer survival
Procedure, shortened: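 Activity against a transplanted murine tumor was judged by comparing the compound group with a vehicle group. The outcome in the treated animals was divided by that in the controls.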

[1] = dose: 50.0 mg/kg/injection, schedule: Q01DX009 (ip), vehicle: saline with Tween-80
[2] = dose: 100.0 mg/kg/injection, schedule: Q01DX009 (ip), vehicle: saline with Tween-80
[3] = dose: 100.0 mg/kg/injection, schedule: Q04DX003 (ip), vehicle: saline with Tween-80
[4] = dose: 200.0 mg/kg/injection, schedule: Q01DX009 (ip), vehicle: saline with Tween-80
[5] = dose: 200.0 mg/kg/injection, schedule: Q04DX003 (ip), vehicle: saline with Tween-80
[6] = dose: 25.0 mg/kg/injection, schedule: Q04DX002 (ip), vehicle: saline with Tween-80
[7] = dose: 50.0 mg/kg/injection, schedule: Q04DX002 (ip), vehicle: saline with Tween-80
[8] = dose: 100.0 mg/kg/injection, schedule: Q04DX002 (ip), vehicle: saline with Tween-80
[9] = dose: 400.0 mg/kg/injection, schedule: Q01DX009 (ip), vehicle: saline with Tween-80
[10] = dose: 400.0 mg/kg/injection, schedule: Q04DX003 (ip), vehicle: saline with Tween-80
[11] = dose: 100.0 mg/kg/injection, schedule: Q01DX001 (ip), vehicle: saline with Tween-80
[12] = dose: 200.0 mg/kg/injection, schedule: Q01DX001 (ip), vehicle: saline with Tween-80
[13] = dose: 400.0 mg/kg/injection, schedule: Q01DX001 (ip), vehicle: saline with Tween-80
[14] = dose: 200.0 mg/kg/injection, schedule: Q04DX002 (ip), vehicle: saline with Tween-80
[15] = dose: 400.0 mg/kg/injection, schedule: Q04DX002 (ip), vehicle: saline with Tween-80
[16] = dose: 100.0 mg/kg/injection, schedule: Q04DX003 (ip), vehicle: saline
[17] = dose: 200.0 mg/kg/injection, schedule: Q04DX003 (ip), vehicle: saline
[18] = dose: 400.0 mg/kg/injection, schedule: Q04DX003 (ip), vehicle: saline

Measured: T/C

CN1CCC(O)(O)C(Br)C1 (centres undefined)
inactive: dose: 18.8 mg/kg/injection, schedule: Q01DX009 (ip), vehicle: saline 98 % of control | dose: 18.8 mg/kg/injection, schedule: Q04DX003 (ip), vehicle: saline 102 % of control | dose: 37.5 mg/kg/injection, schedule: Q01DX009 (ip), vehicle: saline 100 % of control | dose: 37.5 mg/kg/injection, schedule: Q04DX003 (ip), vehicle: saline 106 % of control | dose: 75.0 mg/kg/injection, schedule: Q01DX001 (ip), vehicle: saline 102 % of control | dose: 75.0 mg/kg/injection, schedule: Q01DX009 (ip), vehicle: saline 88 % of control | dose: 75.0 mg/kg/injection, schedule: Q04DX003 (ip), vehicle: saline 100 % of control

Nc1ccc(N=Nc2ccc(N(CCCl)CCCl)cc2)cc1
inactive: dose: 33.0 mg/kg/injection, schedule: Q01DX001 (ip), vehicle: Klucel (hydroxypropylcellulose) (HPC) 96 % of control | dose: 66.0 mg/kg/injection, schedule: Q01DX001 (ip), vehicle: Klucel (hydroxypropylcellulose) (HPC) 91 % of control | dose: 132.0 mg/kg/injection, schedule: Q01DX001 (ip), vehicle: Klucel (hydroxypropylcellulose) (HPC) 91 % of control

O=C(NC(CSCc1ccccc1)C(=O)O)OCc1ccccc1 (centres undefined)
inactive: [1] 98 % of control | [2] 94 % of control | [3] 93 % of control | [4] 103 % of control | [5] 101 % of control

CS(=O)(=O)N1C(=O)c2ccccc2C1=O
inactive: [6] 101 % of control | [7] 98 % of control | [8] 93 % of control

CCOC(=O)CCOc1ccccc1N(CCCl)CCCl
inactive: [2] 87 % of control

C(=C(c1ccccc1)c1ccccc1)=C(c1ccccc1)c1ccccc1
inactive: [2] 93 % of control | [3] 100 % of control | [4] 90 % of control | [5] 97 % of control | [9] 90 % of control | [10] 95 % of control

C[N+](C)(C)CCC(=O)c1ccc(C(=O)CC[N+](C)(C)C)cc1
inactive: dose: 50.0 mg/kg/injection, schedule: Q04DX002 (ip), vehicle: saline 96 % of control | [11] 100 % of control | dose: 100.0 mg/kg/injection, schedule: Q04DX002 (ip), vehicle: saline 96 % of control | [12] 94 % of control | dose: 200.0 mg/kg/injection, schedule: Q04DX002 (ip), vehicle: saline 96 % of control

COc1ccc(OC)c(CCN)c1
inactive: dose: 12.5 mg/kg/injection, schedule: Q01DX009 (ip), vehicle: saline with Tween-80 101 % of control | dose: 25.0 mg/kg/injection, schedule: Q01DX009 (ip), vehicle: saline with Tween-80 102 % of control | dose: 25.0 mg/kg/injection, schedule: Q04DX003 (ip), vehicle: saline with Tween-80 100 % of control | [1] 93 % of control | dose: 50.0 mg/kg/injection, schedule: Q04DX003 (ip), vehicle: saline with Tween-80 97 % of control | [3] 108 % of control

COc1ccccc1C(=O)CC(O)(C(F)(F)F)C(F)(F)F
inactive: [11] 95 % of control | [12] 100 % of control | [13] 109 % of control

CCC(CC)(CC)CCS(=O)[O-].[C-]#[O+].[C-]#[O+].[Fe+6].[c-]1[c-][c-][cH-][c-]1
inactive: [7] 93 % of control | [8] 93 % of control | [14] 104 % of control

Cc1ncc([N+](=O)[O-])cc1C(=O)O
inactive: [3] 94 % of control | [5] 96 % of control | [10] 93 % of control

CCN(C(=O)Nc1cccc(Cl)c1)c1ccccc1C
inactive: [2] 91 % of control | [4] 97 % of control | [9] 97 % of control

O=C(O)c1c(Cl)cccc1Br
inactive: [8] 95 % of control | [14] 95 % of control | [15] 98 % of control

CCOC/C(O)=C(\C#N)c1cccc(Cl)c1
inactive: dose: 25.0 mg/kg/injection, schedule: Q01DX001 (ip), vehicle: other 105 % of control | dose: 50.0 mg/kg/injection, schedule: Q01DX001 (ip), vehicle: other 102 % of control | dose: 100.0 mg/kg/injection, schedule: Q01DX001 (ip), vehicle: other 102 % of control | dose: 200.0 mg/kg/injection, schedule: Q01DX001 (ip), vehicle: other 101 % of control

NNC1CC2CCC1C2 (centres undefined)
inactive: dose: 12.5 mg/kg/injection, schedule: Q01DX009 (ip), vehicle: saline 95 % of control | dose: 25.0 mg/kg/injection, schedule: Q01DX009 (ip), vehicle: saline 93 % of control

O=C(CCl)Nc1ccccc1Cl
inactive: dose: 100.0 mg/kg/injection, schedule: Q04DX003 (ip), vehicle: Klucel (hydroxypropylcellulose) (HPC) 97 % of control | dose: 200.0 mg/kg/injection, schedule: Q04DX003 (ip), vehicle: Klucel (hydroxypropylcellulose) (HPC) 103 % of control

CC(C)C1(C(=O)NNC(=O)CCCc2ccc(N(CCCl)CCCl)cc2)OC2(O)CCCCCN2C1=O (centres undefined)
inactive: dose: 6.25 mg/kg/injection, schedule: Q04DX003 (ip), vehicle: DMSO 101 % of control | dose: 12.5 mg/kg/injection, schedule: Q04DX003 (ip), vehicle: DMSO 95 % of control | dose: 25.0 mg/kg/injection, schedule: Q04DX003 (ip), vehicle: DMSO 114 % of control

O=C(OCc1ccccc1)OC1C2COC(O2)C(OC(=O)OCc2ccccc2)C1O (centres undefined)
inactive: [2] 95 % of control | [4] 95 % of control | [9] 89 % of control

C1=C[S+](c2ccccc2)C(c2ccccc2)c2ccccc21 (centres undefined)
inactive: dose: 12.5 mg/kg/injection, schedule: Q04DX002 (ip), vehicle: Klucel (hydroxypropylcellulose) (HPC) 106 % of control | dose: 25.0 mg/kg/injection, schedule: Q04DX002 (ip), vehicle: Klucel (hydroxypropylcellulose) (HPC) 115 % of control

Nc1nc(N)c2c(=O)c(CSc3ccc(C(=O)NC(CCC(=O)O)C(=O)O)cc3)c[nH]c2n1 (centres undefined)
inactive: dose: 0.5 mg/kg/injection, schedule: Q01DX005 (ip), vehicle: sodium bicarbonate 92 % of control and 104 % of control | dose: 1.0 mg/kg/injection, schedule: Q01DX005 (ip), vehicle: sodium bicarbonate 92 % of control and 106 % of control | dose: 2.0 mg/kg/injection, schedule: Q01DX005 (ip), vehicle: sodium bicarbonate 89 % of control and 108 % of control | dose: 4.0 mg/kg/injection, schedule: Q01DX005 (ip), vehicle: sodium bicarbonate 95 % of control and 104 % of control | dose: 8.0 mg/kg/injection, schedule: Q01DX005 (ip), vehicle: sodium bicarbonate 95 % of control and 108 % of control | dose: 16.0 mg/kg/injection, schedule: Q01DX005 (ip), vehicle: sodium bicarbonate 95 % of control and 106 % of control

O=C(O)C(CCc1ccccc1)N1CCOCC1 (centres undefined)
inactive: [16] 98 % of control | [17] 98 % of control | [18] 101 % of control

O=C1C2C(c3ccccc3)=C(c3ccccc3)C1[C@@]1(c3ccccc3)C(c3ccccc3)=CC(=O)[C@@H]21 (some centres undefined)
inactive: [11] 87 % of control | [13] 89 % of control

COc1ccc(NC(=O)Nc2ccc([N+](=O)[O-])cc2OC)c(Cl)c1
inactive: [6] 88 % of control and 101 % of control | [7] 95 % of control and 103 % of control | [11] 94 % of control | [2] 88 % of control and 95 % of control | [8] 95 % of control | [3] 97 % of control | [12] 101 % of control | [4] 88 % of control and 97 % of control | [14] 93 % of control | [5] 95 % of control | [13] 86 % of control and 91 % of control | [9] 90 % of control and 100 % of control | [15] 98 % of control | [10] 101 % of control

C1CC2CCC3CCCC4CCC(C1)C2C34 (centres undefined)
inactive: [1] 98 % of control | [2] 98 % of control | [3] 98 % of control | [4] 100 % of control | [5] 102 % of control

CC1(C)N=C(N)N=C(N)N1c1ccc(OCCCCNC(=O)c2cccc(S(=O)(=O)F)c2)c(Cl)c1
inactive: dose: 5.0 mg/kg/injection, schedule: Q01DX001 (ip), vehicle: saline with Tween-80 105 % of control | dose: 5.0 mg/kg/injection, schedule: Q01DX009 (ip), vehicle: saline 102 % of control | dose: 10.0 mg/kg/injection, schedule: Q01DX001 (ip), vehicle: saline with Tween-80 95 % of control | dose: 10.0 mg/kg/injection, schedule: Q01DX009 (ip), vehicle: saline 98 % of control | dose: 20.0 mg/kg/injection, schedule: Q01DX001 (ip), vehicle: saline with Tween-80 94 % of control | dose: 20.0 mg/kg/injection, schedule: Q01DX009 (ip), vehicle: saline 98 % of control

O=S1(=O)CC2(N3CCOCC3)CCCCC21 (centres undefined)
inactive: [16] 100 % of control | [17] 102 % of control | [18] 104 % of control

CC(C)NC(=O)Nc1ccccc1Cl
inactive: [8] 93 % of control | [14] 97 % of control | [15] 104 % of control

From PubChem BioAssay AID256 (DTP/NCI, 2004)
